Reference: patent US20120101098A1, “3,28-DISUBSTITUTED BETULINIC ACID DERIVATIVES AS ANTI-HIV AGENTS” (priority 2009, published 2012)
Read-outs that look alike come from different tables or passages of the source.

Assays:
HIV-1 = assay: Example 2 anti-HIV bioassay of C-28 ethylene glycol bevirimat analogs; assay type: cell-based; conditions: Example 2 compounds (Scheme B)
in vitro [1] = assay: in vitro
[2] = Solubility (stated in words)
HIV-1IIIB = HIV-1IIIB replication inhibition assay in MT-2 lymphocytes (p24 antigen ELISA); assay type: cell-based; conditions: HIV-1IIIB infected MT-2 cell lines, concentration that inhibits HIV-1IIIB replication by 50%, NS: no suppression at concentrations below the CC50
Protocol: (§1) HIV-1IIIB Replication Inhibition Assay in MT-2 Lymphocytes. The evaluation of HIV-1 inhibition was carried out as follows. […] Control wells containing virus and cells only (no drug) and cells only (no virus or drug) were also prepared. A second identical set of samples were added to cells under the same conditions without virus (mock infection) for cytotoxicity determinations (CC50 defined below). […] On day 4 PI, the assay was terminated and culture supernatants were harvested for p24 antigen ELISA analysis. The compound cytotoxicity was determined by XTT using the mock-infected sample wells.

[3] = Protein binding affinity (stated in words, Example 2); assay type: in vitro ADME; conditions: Example 2 compounds (Scheme B)
mock-infected MT-2 cell [4] = assay: Cytotoxicity in mock-infected MT-2 cells (XTT); conditions: concentration that inhibits mock-infected MT-2 cell growth by 50%
Protocol: as §1

[5] = Example 2 bioassay cytotoxicity (CC50); conditions: Example 2 compounds (Scheme B)
HIV-1NL4-3 = HIV-1NL4-3 replication inhibition assay in MT-4 lymphocytes (p24 antigen ELISA); assay type: cell-based; conditions: HIV-1NL4-3 infected MT-4 cell lines; concentration that inhibits HIV-1NL4-3 replication by 50%
Excerpt: HIV-1NL4-3 Replication Inhibition Assay in MT-4 Lymphocytes. A previously described HIV-1 infectivity assay was used.^28,33 A 96-well microtiter plate was used to set up the HIV-1NL4-3 replication screening assay. NL4-3 variants at a multiplicity of infection (MOI) of 0.01 were used to infect MT4 cells. Culture supernatants were collected on day 4 post-infection for the p24 antigen capture using an ELISA kit from ZeptoMetrix Corporation (Buffalo, N.Y.).

mock-infected MT-4 cell = assay: Cytotoxicity in mock-infected MT-4 cells; assay type: cell-based; conditions: concentration that inhibits mock-infected MT-4 cell growth by 50%; read-out: CC50
mock-infected MT-2 cell [6] = tested on: mock-infected MT-2 cell
Protocol: as §1

[7] = human, microsomes
in vitro [8] = conditions: human, mock-infected MT-2 cells
Protocol: as §1

[9] = In vitro metabolic stability in pooled human liver microsomes; conditions: 3 μM, 0.2 mg/mL human liver microsome, NADPH
[10] = Example 2 compounds (Scheme B), C-28 ethylene glycol side chains on bevirimat
[11] = Human immunodeficiency virus 1, MT2

SMILES	solubility (in words) ([2]; Example 1 compounds)	solubility (in words) [2, 10]	EC50 (HIV-1IIIB) [µM]	protein binding affinity (in words) [3]	EC50 (HIV-1) [µM]	CC50 (mock-infected MT-2 cell [4]) [µM]	CC50 [5] [µM]	melting point [°C]	EC50 (HIV-1IIIB; [11]) [µM]	also measured
C=C(C)[C@@H]1CC[C@]2(C(=O)O)CC[C@]3(C)[C@H](CC[C@@H]4[C@@]5(C)CC[C@H](OC(=O)CC(C)(C)C(=O)O)C(C)(C)[C@@H]5CC[C@]43C)[C@@H]12 [Compound 2, bevirimat, reference compound]	–	–	–	–	–	–	–	–	–	EC50 (HIV-1; Human immunodeficiency virus 1): 0.063 µM; CC50 (in vitro [1]): 16.3 µM
C=C(COCCN1CCOCC1)[C@@H]1CC[C@]2(C(=O)NCCCCCCCC(=O)O)CC[C@]3(C)[C@H](CC[C@@H]4[C@@]5(C)CC[C@H](O)C(C)(C)[C@@H]5CC[C@]43C)[C@@H]12 [Compound 20, N-[3β-Hydroxy-30-(2′-morpholinoethoxy)-lup-20(29)-en-28-oyl]-8-aminooctanoic acid]	increase in the derivative's solubility	increased solubility	1.8	decreased protein binding affinity	0.17	24.8	12.4	–	–	–
C=C(COCCN1CCOCC1)[C@@H]1CC[C@]2(C(=O)NCCCCCCCC(=O)NC)CC[C@]3(C)[C@H](CC[C@@H]4[C@@]5(C)CC[C@H](O)C(C)(C)[C@@H]5CC[C@]43C)[C@@H]12 [Compound 21]	good solubility	increased solubility	0.09	decreased protein binding affinity	0.046	22.3	12	–	–	EC50 (HIV-1NL4-3): 0.09 µM; CC50 (mock-infected MT-4 cell): > 10 µM
C=C(C)[C@@H]1CC[C@]2(C(=O)NCCCCCCCC(=O)O)CC[C@]3(C)[C@H](CC[C@@H]4[C@@]5(C)CC[C@H](O)C(C)(C)[C@@H]5CC[C@]43C)[C@@H]12 [Compound 23, N-[3β-Hydroxy-lup-20(29)-en-28-oyl]-8-aminooctanoic acid]	–	–	3.3	–	–	–	–	–	–	CC50 (mock-infected MT-2 cell [6]): 33.4 µM; half life (t1/2, time to lose 50% of parent) [7]: around 35 min
C=C(CBr)[C@@H]1CC[C@]2(C(=O)NC(CC(C)C)C(=O)O)CC[C@]3(C)[C@H](CC[C@@H]4[C@@]5(C)CC[C@H](OC(=O)CC(C)(C)C(=O)O)C(C)(C)[C@@H]5CC[C@]43C)[C@@H]12 (stereo partly drawn) [Compound 30, N-[3β-O-(3′,3′-Dimethylsuccinyl)-30-bromo-lup-20(29)-en-28-oyl]-leucine]	–	–	–	–	–	–	–	105 to 107	0.011	CC50 at 4 day (in vitro [8]): 33.2 µM
C=C(C)[C@@H]1CC[C@]2(C(=O)N3CCC(CCCC(=O)O)CC3)CC[C@]3(C)[C@H](CC[C@@H]4[C@@]5(C)CC[C@H](O)C(C)(C)[C@@H]5CC[C@]43C)[C@@H]12 [Compound 38, N-[3β-Hydroxy-lup-20(29)-en-28-oyl]-4-piperidine butyric acid]	–	–	–	–	–	41	–	145 to 146	21.7	Persentage of Remaining Parent Compounds (X ± SD) % ([9]; incubation time 0 min): 100.0%; Persentage of Remaining Parent Compounds (X ± SD) % ([9]; incubation time 5 min): 101.7 ± 4.7%; Persentage of Remaining Parent Compounds (X ± SD) % ([9]; incubation time 15 min): 97.6 ± 6.2%; Persentage of Remaining Parent Compounds (X ± SD) % ([9]; incubation time 30 min): 81.4 ± 8.6%; Persentage of Remaining Parent Compounds (X ± SD) % ([9]; incubation time 60 min): 62.7 ± 4.3%; Persentage of Remaining Parent Compounds (X ± SD) % ([9]; incubation time 120 min): 53.8 ± 3.8%
